{"source": "patent US20140294894A1", "about": "(priority 2007, published 2014)", "key": {"tetanus toxin": {"system": "tetanus toxin", "set-up": "species or system mice", "details": "mouse, in vivo"}, "TT": {"system": "TT", "set-up": "species or system mice", "details": "mouse, in vivo"}, "splenocytes": {"system": "splenocytes", "type": "cell-based, mice"}, "Spleen cells": {"system": "Spleen cells", "assay": "Cytokine assay", "type": "cell-based, mice"}, "[1]": {"details": "Experiment 1, following restimulation"}}, "note": "Ends that are not written are not given here.", "data": [{"substance": "FCIGRL [AT1002]", "values": [{"measurement": "protective antibody levels compared to immunization with TT alone", "setting": "tetanus toxin", "result": "increased protective antibody levels"}, {"measurement": "anti-tetanus IgG subclass titers (IgG1, IgG2a): shift toward a Th1 response", "setting": "TT", "result": "No indication of a shift toward a Th1 response"}, {"measurement": "anti-tetanus response (tetanus IgG titer) compared to tetanus toxoid alone", "setting": "TT", "result": "significantly enhances the anti-tetanus response in a dose-dependent manner"}, {"measurement": "anti-tetanus response (tetanus IgG titer), effect of higher dose", "setting": "TT", "result": "does not increaser the anti-tetanus response"}, {"measurement": "proliferation of spleen cells on restimulation with immunizing antigen (Stimulation Index)", "setting": "splenocytes", "result": "induces the strongest cell proliferation response"}, {"measurement": "IL-5 production compared to groups immunized with toxoid (TT) alone", "setting": "Spleen cells; [1]", "result": "does not increase production"}, {"measurement": "IL-10 production compared to groups immunized with toxoid (TT) alone", "setting": "Spleen cells; [1]", "result": "does not increase production"}, {"measurement": "IL-6 production by spleen cells compared to groups immunized with toxoid (TT) alone", "setting": "Spleen cells; Experiment 1, restimulation with TT 0-100 μg/ml, FIG. 8A", "result": "does increase IL-6 production"}, {"measurement": "IFN-γ production by spleen cells compared to groups immunized with toxoid (TT) alone", "setting": "Spleen cells; Experiment 1, restimulation with TT 0-100 μg/ml, FIG. 8B", "result": "does not increase IFN-γ production"}, {"measurement": "IL-6 production by spleen cells compared to groups immunized with toxoid (TT) alone", "setting": "Spleen cells; Experiment 2, restimulation with TT 0-100 μg/ml, FIG. 14A", "result": "does increase IL-6 production"}]}]}
